Test results published in patent US7786043B2, “2-(pyridin-2-yl)-pyrimidines and their use for controlling harmful fungi” (BASF Aktiengesellschaft, priority 2004, dated 2010).

Experiments:
Type in all cases: in vivo
[1] = test system: Puccinia recondita; assay: Use Example 5: curative activity against brown rust of wheat caused by Puccinia recondita; conditions: 250 ppm, wheat seedlings, curative (sprayed one day after inoculation), 7 days; untreated plants 90% infected
Procedure: (§1) For the use examples 1 to 5 the active compounds were prepared separately as a stock solution with 0.25% by weight of active compound in acetone or DMSO. 1% by weight of the emulsifier Wettol® EM 31 (wetting agent having emulsifying and dispersing action based on ethoxylated alkylphenols) was added to this solution, and the solution was diluted with water to the desired concentration.
Leaves of potted wheat seedlings of the cultivar “Kanzler” were inoculated with a spore suspension of brown rust (Puccinia recondita). The pots were then placed in a chamber at high atmospheric humidity (90 to 95%) and 20 to 22° C. for 24 hours. During this time, the spores germinated and the germ tubes penetrated into the leaf tissue. The next day, the infected plants were sprayed to runoff point with an aqueous suspension having the active compound concentration stated below. The suspension or emulsion had been prepared as described above. After the spray coating had dried, the test plants were cultivated in a greenhouse at temperatures between 20 and 22° C. and at 65 to 70% relative atmospheric humidity for 7 days. The extent of the rust fungus development on the leaves was then determined.

[2] = test system: Alternaria solani; assay: Use Example 1: activity against early blight caused by Alternaria solani (tomato plants); conditions: 250 ppm, tomato plants sprayed one day before infection, rated after 5 days; untreated plants 90% infected
[3] = test system: Erysiphe [syn. Blumeria] graminis forma specialis. tritici; assay: Use Example 3: activity against mildew of wheat caused by Erysiphe [syn. Blumeria] graminis forma specialis tritici; conditions: 250 ppm, wheat seedlings, protective, rated after 7 days; untreated plants 90% infected
Procedure: as §1
Leaves of potted wheat seedlings of the cultiva “Kanzler” were sprayed to runoff point with an aqueous suspension having the concentration of active compounds stated below. 24 h after the spray coating had dried on, the leaves were dusted with the spores of mildew of wheat (Erysiphe [syn. Blumeria] graminis form a specialis. tritici). The plants were then placed in a greenhouse at temperatures between 20 and 24° C. and at 60-90% relative atmospheric humidity. After 7 days, the extent of the fungal infection was determined visually by the infected leaf area.

[4] = test system: Botrytis cinerea; assay: Use Example 2: activity against gray mold on bell pepper leaves caused by Botrytis cinerea, protective application; conditions: 250 ppm, rated after 5 days, untreated plants 90% infected
Procedure: as §1
Bell pepper leaves of the cultiva “Neusiedler Ideal Elite” were, after 2 to 3 leaves had become well developed, sprayed to runoff point with an aqueous suspension having the concentration of active compounds stated below. The next day, the treated plants were inoculated with an aqueous spore suspension of Botrytis cinerea in a 2% aqueous biomalt solution having a density of 1.7×10^6 spores/ml. The plants were then placed in a climatized chamber at temperatures between 22 and 24° C. and at high atmospheric humidity. After 5 days, the extent of the fungal infection was determined visually by the infected leaf area.

[5] = test system: Plasmopara viticola; assay: Use Example 4: activity against peronospora of grapevines caused by Plasmopara viticola; conditions: 63 ppm, potted grapevines, protective; untreated plants 90% infected
Procedure: as §1
Leaves of potted grapevines were sprayed to runoff point with an aqueous suspension having the concentration of active compounds stated below. The next day, the undersides of the leaves were inoculated with an aqueous sporangia suspension of Plasmopara viticola. The plants were then initially placed in a water-vapor-saturated chamber for 48 h and then in a greenhouse at temperatures between 20 and 30° C. After this period of time, the plants were, to promote sporangial eruption, again placed in the water-vapor-saturated chamber for 16 h. The extent of the development of the infection on the undersides of the leaves was then determined.

Compound | infection (rust fungus development) [1] [%] | infection [2] | infection (infected leaf area) [3] [%] | infection (infected leaf area) [4] | infection [5]
Cc1ccc(-c2ncc3c(n2)CCCCC3)nc1-c1ccc(F)cc1 [Example 9] | 20 | no infection |  |  | 
Fc1ccc(-c2cccc(-c3ncc4c(n3)CCCCC4)n2)cc1 [Example 7] |  | no infection | 20 | no infection | no infection
Cc1ccc(-c2ncc3c(n2)CCCCC3)nc1-c1ccccc1 [Example 1, 2-(5-methyl-6-phenylpyridin-2-yl)-6,7,8,9-tetrahydro-5H-cycloheptapyrimidine] |  | no infection |  |  | 
Cc1ccc(-c2ncc3c(n2)CCCC3)nc1-c1ccc(F)cc1 [2-(5-methyl-6-(4-fluorophenyl)pyridin-2-yl)-5,6,7,8-tetrahydroquinazoline, reference compound] | 50 | 80% | 80 |  | 70%
c1ccc(-c2cccc(-c3ncc4c(n3)CCCCCC4)n2)cc1 [Example 11] |  | no infection |  | no infection | 
Cc1ccc(-c2ncc3c(n2)CCCCC3)nc1-c1ccccc1 [Example 6] |  |  |  | no infection | 
